One test deals with Mouse myocyte. Put plainly: Mouse myocyte lipolysis assay. The test is classed as cell-based. As to conditions: 100 μM, differentiated myocytes. On the procedure: Cells were obtained from ATCC and cultured in Dulbecco's Modified Eagle's medium (DMEM) containing 20% fetal bovine serum and 1% penicillin/streptomycin at 37° C. in an incubator with 5% CO2 Once the cells became confluent, they were seeded into a tissue culture treated 96 well plate. The next day, the medium containing DMEM with 2% equine serum was used to start differentiation. Table 2 lists the tested compounds including those that reduced the release of glycerol (+, ++, or +++). The lipolytic rate of muscle triglycerides is associated with metabolic dysfunction including insulin resistance and liver steatosis. Compounds that lower lipolysis of adipocytes may improve metabolic function including improving insulin sensitivity and reducing liver steatosis, thus improving outcomes in patients with diabetes mellitus (e.g., prediabetes or type II diabetes) obesity, and hyperlipidemia.

Another test deals with C57BL/6 mice. Put plainly: In vivo evaluation in C57BL/6 mice fed a high-fat diet. The conditions noted are these: vs. HFD control group, up to day 84. On the procedure: Animals were allowed free access to food and drinking water for the entire study. Animals were weighed on a regular basis, and food and drinking water consumption monitored. Plasma and stool samples were collected at the beginning of the study and 42 days into the study. Additional blood was drawn from fasted mice 58 days into the study. Insulin tolerance tests were performed 72 or 73 days into the study. Following an approximate 4 h fast, 0.5 Units/kg insulin was administered intraperitoneally. Blood was collected pre-insulin challenge (t=0) and at t=15, 30, 60, 90, and 120 min following insulin challenge. Oral glucose tolerance tests were performed 79 or 80 days into the study. Following an approximate 4 h fast, 2 g/kg glucose was administered by oral gavage. Blood was collected pre-insulin challenge (t=0) and at t=15, 30, 60, 90, and 120 min following glucose challenge. At the end of the study, body weight, food consumption, blood glucose, serum ALT levels, serum AST levels, serum cholesterol (total cholesterol. HDL, and LDL levels), serum triglycerides levels, liver triglyceride levels, liver cholesterol levels, liver weight, subcutaneous were measured in all mice.

On to `O=C(O)c1cc(O)ccc1O` [Gentisate], for which, in the test with Mouse myocyte, the “Free glycerol % DMSO” value is “+++ (50%<: +++)”.

As to `CC(=O)O[C@@H]1OC[C@@H](OC(C)=O)[C@H](OC(C)=O)[C@H]1OC(C)=O` [compound 4], the body weight result in the test with C57BL/6 mice is recorded as “induce weight loss”.
